This experiment concerns HVA calcium channel currents in GI tract afferent DRG neurons. The experiment is classed as cell-based, rat.

Take “Omega-conotoxin GVIA (CKSHYPGSSCSHYPTSYNCCRSCNHYPYTKRCY; VARIANT (0)...(0) omega-conotoxin GVIA; listed as Conus geographus)”: the “calcium current amplitude as percentage of control amplitudes” value is 59±4%.

The record behind these values is patent US7125848B2, “Methods of treating non-inflammatory gastrointestinal tract disorders using Cav2.2 subunit calcium channel modulators” (Dynogen Pharmaceuticals, Inc., priority 2003, dated 2006).
